This passage reports IC50 results from US10421765B2, “Tetrahydropyrido[4,3-d]pyrimidine inhibitors of ATR kinase” (Board of Regents, The University of Texas System, priority 2017, dated 2019).

pIC50: −log10 of the molar value. Like-named read-outs stand apart in the source and are kept apart here.

Assay [1] addresses ATR/ATRIP complex (Homo sapiens (Human), UniProt Q13535). Nature of the assay: ATR/ATRIP enzymatic assay (Caliper-based). The assay is classed as biochemical. To be noted: FAM-labeled RAD17 peptide, ATP. On the procedure:
Human full-length FLAG-TEV-ATR and His6-ATRIP were co-expressed in HEK293 cells. The cell pellet (20 g) was harvested and lysed in 100 mL of lysis buffer (20 mM Tris-HCl pH 7.5 at room temperature, 137 mM NaCl, 10% glycerol, 1 mM DTT, 1% (v/v) Tween-20, 0.1% (v/v) NP-40, complete protease inhibitor cocktail tablets, phosphatase inhibitor cocktail tablets, 2 mM MgCl2, 0.2 mM EDTA, and 1 mM ATP). After sonication and centrifugation, the supernatant was incubated at 4° C. for 3 hours with 1 mL of anti-FLAG resin (Sigma catalog #A2220) that had been pre-equilibrated in buffer A (20 mM Tris-HCl pH 7.5 at room temperature, 137 mM NaCl, 10% glycerol, 1 mM DTT, 2 mM MgCl2, and 0.2 mM EDTA). The sample was loaded into a column, and then washed with buffer A three times. Protein was subsequently eluted with 2 ml of buffer B (buffer A+200 μg/ml 3×FLAG peptide).
The ability of new chemical matter to inhibit the ATR catalytic activity in this ATR/ATRIP complex was assessed using a Caliper-based assay. A 2x enzyme solution (i.e., 4 nM enzyme) was prepared using 1× Kinase Reaction Buffer (25 mM HEPES pH 8, 0.0055% Brij-35, 10 mM MnCl2, and 1 mM DTT). A 2x peptide solution was then prepared consisting of 10 uM FAM-labeled RAD17 peptide (GL Biochem, catalog #524315) in 1× Kinase Reaction Buffer supplemented with 2 μM ATP. 10 μL of the 2× enzyme solution was transferred to an assay plate containing 60 nL of test compound (from a 3× serial dilution) in 100% DMSO. Following a 30 minute incubation at 28° C., 10 μL of the 2× peptide solution was then transferred to the same assay plate. The reaction was allowed to incubate at 28° C. for 6 hours. After adding […] of stop buffer (100 mM HEPES pH 7.5, 0.015% Brij-35, 0.2% Coating-3 Reagent (PerkinElmer, catalog #PN760050), and 50 mM EDTA), data were collected on a Caliper instrument. Conversion values were converted to inhibition values via the following equation: % inhibition=(max−conversion)/(max−min)*100, whereby “max” corresponds to the DMSO control and “min” corresponds to the low control. IC50 values were calculated using the following equation in XLFit: Y=Bottom+(Top−Bottom)/1+(IC50/X)^HillSlope).

For assay [2], the system named is ATR-driven phosphorylation of Chk1 kinase at Serine 345 in HT-29 colorectal adenocarcinoma cells. Nature of the assay: pCHK1 cellular assay (CHK1 p-Ser345 AlphaScreen SureFire). The assay is classed as cell-based. To be noted: 4-nitroquinoline N-oxide 12 uM, read-out: Cell IC50 (pCHK1 IC50 values). The protocol: Inhibitors of ATR kinase are effective at inhibiting the ATR-driven phosphorylation of the downstream target Chk1 kinase at Serine 345, following the addition of 4-nitroquinoline N-oxide, a chemical used to induce DNA damage. Cellular IC50 for the inhibitors of ATR described herein were measured in HT-29 colorectal adenocarcinoma cells. HT-29 cells were routinely maintained in McCoy's 5A media (ATCC Catalog #30-2007) supplemented with 10% fetal bovine serum (Sigma Catalog #F2442) and 1× Penicillin-Streptomycin (Gibco Catalog #15140-122) using a humidified incubator (37° C., 5% CO2, and ambient O2).
In preparation for the CHK1 (p-Ser345) ALPHASCREEN® SUREFIRE® assay, cells were harvested and resuspended in McCoy's 5A media supplemented with 10% fetal bovine serum and 1× Penicillin-Streptomycin. Cells were seeded onto a 384-well black CELLSTAR® Tissue Culture Plate (VWR Catalog #89085-314) at a density of 13,000 cells/well in a volume of 40 uL. The microplate was incubated overnight (approximately 20 hours) at 37° C. with 5% CO2 and ambient O2. Stock solutions of the test compounds were prepared in 100% DMSO (Sigma, Catalog #D2650) and serially diluted 1:3 using 100% DMSO. Compounds were additionally diluted 1:33 in culture medium, and 10 ul/well were transferred to the tissue culture plate. Following the compound addition the microplate was incubated at 37° C. for 90 minutes. 10 uL of 4-nitroquinoline N-oxide (Sigma Aldrich Catalog #N8141-1G) diluted in media (final concentration 12 uM) were added to the tissue culture plate followed by a 120 minute incubation at 37° C. The cells were then washed with PBS and lysed using 10 uL/well SUREFIRE® Kit lysis buffer diluted to 1× in water (PerkinElmer Catalog #TGRCHK1S50K), with mixing on an orbital shaker at 500 rpm for 20 min at RT. Lysates were frozen at −20° C. overnight.
4 uL/well of lysate was then transferred from the tissue culture plate to a 384-well, white, low volume, PROXIPLATE™ (PerkinElmer Catalog #600828). 5 uL/well of the acceptor bead solution, prepared by diluting SUREFIRE® Kit activation buffer (PerkinElmer Catalog #TGRCHK1S50K) and ALPHASCREEN® Protein A acceptor beads (PerkinElmer Catalog #6760617R) in SUREFIRE® Kit reaction buffer (PerkinElmer Catalog #TGRCHK1S50K), were added to the lysates under subdued light and incubated at room temperature for 120 min. 2 uL/well of the donor bead solution, prepared by diluting ALPHASCREEN® Streptavidin donor beads (PerkinElmer Catalog #6760617R) in SUREFIRE® Kit dilution buffer (PerkinElmer Catalog #TGRCHK1S50K), were added under subdued light and incubated at room temperature for an addition 120 minutes. The pCHK1 ALPHASCREEN® signal was measured using an ENVISION® plate reader (PerkinElmer). IC50 values were calculated using a four-parameter logistic curve fit using Genedata Screener software. Percent of control for each compound concentration was calculated by the following formula: 100*(Compound−Min)/(Max−Min) where “Max” is the high control, DMSO, and “Min” is the low control, 5 uM ATR inhibitor.

Where [3] appears, read: read-out: ATR/ATRIP Enzyme IC50.
Where [4] appears, read: Homo sapiens, HT-29, HT-29 cells.
Setting [5] is: estimated range, read-out: ATR/ATRIP Enzyme IC50 (estimated class).

ATR/ATRIP complex, sequence (Q13535 whole entry): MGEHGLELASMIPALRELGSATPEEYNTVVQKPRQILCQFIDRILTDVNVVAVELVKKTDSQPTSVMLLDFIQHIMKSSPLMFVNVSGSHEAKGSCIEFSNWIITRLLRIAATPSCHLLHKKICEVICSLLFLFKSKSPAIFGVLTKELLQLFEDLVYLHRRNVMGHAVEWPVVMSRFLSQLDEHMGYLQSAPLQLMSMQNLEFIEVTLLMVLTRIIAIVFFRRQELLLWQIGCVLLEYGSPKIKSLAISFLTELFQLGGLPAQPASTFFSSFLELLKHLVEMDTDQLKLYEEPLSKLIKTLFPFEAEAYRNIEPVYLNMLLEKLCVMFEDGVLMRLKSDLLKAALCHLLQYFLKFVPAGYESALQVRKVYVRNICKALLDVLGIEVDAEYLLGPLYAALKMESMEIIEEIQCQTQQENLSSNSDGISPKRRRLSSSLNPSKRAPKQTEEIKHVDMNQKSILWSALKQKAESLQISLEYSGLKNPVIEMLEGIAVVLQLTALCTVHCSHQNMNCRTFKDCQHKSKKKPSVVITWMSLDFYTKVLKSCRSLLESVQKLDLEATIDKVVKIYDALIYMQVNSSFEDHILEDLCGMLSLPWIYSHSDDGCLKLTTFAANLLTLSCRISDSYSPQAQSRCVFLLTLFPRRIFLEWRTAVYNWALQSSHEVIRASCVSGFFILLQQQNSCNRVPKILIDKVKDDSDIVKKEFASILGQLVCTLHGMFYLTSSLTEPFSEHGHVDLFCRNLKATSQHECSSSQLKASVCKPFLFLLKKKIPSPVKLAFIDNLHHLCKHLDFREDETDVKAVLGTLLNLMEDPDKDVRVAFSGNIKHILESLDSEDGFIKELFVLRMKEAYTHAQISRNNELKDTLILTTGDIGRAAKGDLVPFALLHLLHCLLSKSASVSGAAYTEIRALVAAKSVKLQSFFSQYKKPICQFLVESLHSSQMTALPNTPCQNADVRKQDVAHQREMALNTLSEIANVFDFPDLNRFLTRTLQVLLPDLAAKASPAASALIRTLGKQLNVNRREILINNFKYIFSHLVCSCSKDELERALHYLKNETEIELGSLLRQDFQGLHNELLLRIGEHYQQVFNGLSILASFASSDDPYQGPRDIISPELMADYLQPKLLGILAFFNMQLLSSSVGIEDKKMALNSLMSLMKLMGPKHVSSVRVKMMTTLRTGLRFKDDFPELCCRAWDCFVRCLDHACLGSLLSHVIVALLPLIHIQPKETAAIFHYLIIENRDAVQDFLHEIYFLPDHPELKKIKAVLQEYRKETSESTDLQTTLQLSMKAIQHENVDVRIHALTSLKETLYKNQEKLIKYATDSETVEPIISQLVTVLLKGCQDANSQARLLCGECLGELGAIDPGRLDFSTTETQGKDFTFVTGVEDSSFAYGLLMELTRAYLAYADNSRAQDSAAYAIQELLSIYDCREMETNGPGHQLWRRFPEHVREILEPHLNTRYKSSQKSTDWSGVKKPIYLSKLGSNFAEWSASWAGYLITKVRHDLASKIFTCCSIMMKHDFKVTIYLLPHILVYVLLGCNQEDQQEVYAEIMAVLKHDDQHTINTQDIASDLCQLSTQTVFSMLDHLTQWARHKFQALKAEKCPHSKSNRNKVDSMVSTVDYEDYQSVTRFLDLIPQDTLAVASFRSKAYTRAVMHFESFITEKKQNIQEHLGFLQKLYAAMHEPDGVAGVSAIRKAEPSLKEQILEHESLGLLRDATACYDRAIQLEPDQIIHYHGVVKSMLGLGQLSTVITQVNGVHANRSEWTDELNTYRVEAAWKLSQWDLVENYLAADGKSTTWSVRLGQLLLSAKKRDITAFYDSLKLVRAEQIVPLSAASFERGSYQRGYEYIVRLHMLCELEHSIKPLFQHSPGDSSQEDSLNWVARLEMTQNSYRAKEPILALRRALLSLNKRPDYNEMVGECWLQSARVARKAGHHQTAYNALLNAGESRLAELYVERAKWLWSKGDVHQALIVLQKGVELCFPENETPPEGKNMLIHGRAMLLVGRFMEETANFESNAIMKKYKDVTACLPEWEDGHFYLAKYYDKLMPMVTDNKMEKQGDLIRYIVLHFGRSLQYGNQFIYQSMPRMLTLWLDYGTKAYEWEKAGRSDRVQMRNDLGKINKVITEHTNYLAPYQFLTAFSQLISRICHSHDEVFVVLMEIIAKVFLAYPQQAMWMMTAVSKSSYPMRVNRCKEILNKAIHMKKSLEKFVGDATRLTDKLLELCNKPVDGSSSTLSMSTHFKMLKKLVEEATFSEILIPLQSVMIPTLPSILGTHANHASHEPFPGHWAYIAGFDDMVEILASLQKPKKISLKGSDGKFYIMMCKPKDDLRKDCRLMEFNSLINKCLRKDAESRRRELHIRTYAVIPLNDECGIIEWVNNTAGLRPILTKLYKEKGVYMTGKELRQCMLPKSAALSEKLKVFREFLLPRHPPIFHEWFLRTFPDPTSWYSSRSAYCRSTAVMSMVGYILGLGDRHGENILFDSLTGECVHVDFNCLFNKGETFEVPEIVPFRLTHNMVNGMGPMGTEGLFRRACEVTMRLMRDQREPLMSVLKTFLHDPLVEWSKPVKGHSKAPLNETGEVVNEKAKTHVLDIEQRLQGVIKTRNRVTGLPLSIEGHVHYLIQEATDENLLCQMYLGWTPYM
ATR/ATRIP complex, sequence (Q8WXE1 whole entry partner): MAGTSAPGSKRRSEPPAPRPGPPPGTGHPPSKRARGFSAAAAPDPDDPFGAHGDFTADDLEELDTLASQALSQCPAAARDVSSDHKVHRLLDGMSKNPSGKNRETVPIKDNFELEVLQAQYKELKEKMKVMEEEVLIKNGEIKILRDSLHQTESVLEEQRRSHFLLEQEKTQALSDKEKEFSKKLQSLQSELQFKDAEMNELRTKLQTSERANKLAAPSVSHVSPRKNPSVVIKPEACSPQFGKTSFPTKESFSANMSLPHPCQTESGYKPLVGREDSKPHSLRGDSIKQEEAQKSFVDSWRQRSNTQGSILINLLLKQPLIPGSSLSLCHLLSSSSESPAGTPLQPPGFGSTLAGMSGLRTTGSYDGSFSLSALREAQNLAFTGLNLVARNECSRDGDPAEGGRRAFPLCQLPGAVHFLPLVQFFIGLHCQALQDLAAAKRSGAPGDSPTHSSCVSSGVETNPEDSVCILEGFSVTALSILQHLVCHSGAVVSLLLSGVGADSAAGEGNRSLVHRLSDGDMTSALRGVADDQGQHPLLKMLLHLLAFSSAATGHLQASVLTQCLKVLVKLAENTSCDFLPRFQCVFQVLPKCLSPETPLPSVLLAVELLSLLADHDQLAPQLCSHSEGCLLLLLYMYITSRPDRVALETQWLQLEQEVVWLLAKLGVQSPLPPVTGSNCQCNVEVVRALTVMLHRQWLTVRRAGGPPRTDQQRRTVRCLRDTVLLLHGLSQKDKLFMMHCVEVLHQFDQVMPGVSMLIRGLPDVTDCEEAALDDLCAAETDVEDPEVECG

With `C[C@@H]1Cc2ncnc(N3CCC(C)(O)CC3)c2CN1c1cc(Cl)nc2[nH]ccc12` [Example 66, (R)-1-(6-(6-chloro-1H-pyrrolo[2,3-b]pyridin-4-yl)-7-methyl-5,6,7,8-tetrahydropyrido[4,3-d]-pyrimidin-4-yl)-4-methyl-piperidin-4-ol], the values for the pIC50 in assay [1] (setting [3]) and in assay [2] (setting [4]) were 6.23 and 7.60, respectively.
On the same counts, the results for `C[C@@H]1Cc2ncnc(N3CC(C(C)(C)O)C3)c2CN1c1cc(Cl)nc2[nH]ccc12` [Example 33, 2-{1-[(7R)-6-{6-chloro-1H-pyrrolo[2,3-b]pyridin-4-yl}-7-methyl-5H,6H,7H,8H-pyrido[4,3-d]pyrimidin-4-yl]azetidin-3-yl}propan-2-ol] are 6.74 and 7.82.
Consider `CS(=O)(=O)c1ccc(-c2ncnc3c2CN(c2ccnc4[nH]ccc24)CC3)cc1` [Example 1, 4-(4-(Methylsulfonyl)phenyl)-6-(1H-pyrrolo[2,3-b]pyridin-4-yl)-5,6,7,8-tetrahydropyrido[4,3-d]pyrimidine bis(trifluoroacetate)], for which the figures for the pIC50 in assay [1] (setting [5]) and in assay [2] (setting [4]) were 5.00 to 6.00 and 5.73, respectively.
`C[C@@H]1Cc2ncnc(N3CC(NS(C)(=O)=O)C3)c2CN1c1ccnc2[nH]ccc12` [Example 84, (R)-N-(1-(7-methyl-6-(1H-pyrrolo[2,3-b]-pyridin-4-yl)-5,6,7,8-tetrahydropyrido[4,3-d]pyrimidin-4-yl)-azetidin-3-yl)-methanesulfonamide]: the pIC50 in assay [1] (setting [3]) was 6.14; in assay [2] (setting [4]), 7.10.
Taken in the same sequence, the figures for `C[C@@H]1Cc2ncnc([C@@H]3CCN(S(C)(=O)=O)C3)c2CN1c1ccnc2[nH]ccc12` [Example 57a, (R)-7-methyl-4-((R)-1-(methylsulfonyl)pyrrolidin-3-yl)-6-(1H-pyrrolo[2,3-b]pyridin-4-yl)-5,6,7,8-tetrahydropyrido[4,3-d]pyrimidine] were 6.08 and 6.74.
With `C[C@@H]1Cc2ncnc(C3C[C@H]4CC[C@@H](C3)N4S(C)(=O)=O)c2CN1c1cc(Cl)nc2[nH]ccc12` (single isomer, unassigned) [Example 11b], the pIC50 in assay [1] (setting [3]) was 6.48; in assay [2] (HT-29 cells), 7.54.
On to `COc1cc(N2Cc3c(ncnc3C3CCN(S(C)(=O)=O)CC3)C[C@H]2C)c2cc[nH]c2n1` [Example 91, (R)-6-(6-methoxy-1H-pyrrolo[2,3-b]pyridin-4-yl)-7-methyl-4-(1-(methylsulfonyl)-piperidin-4-yl)-5,6,7,8-tetrahydropyrido[4,3-d]-pyrimidine], for which the pIC50 in assay [1] (setting [3]) was 6.57; in assay [2] (setting [4]), 7.74.
For the molecule `COC(=O)N1CCCC(c2ncnc3c2CN(c2cc(Cl)nc4[nH]ccc24)[C@H](C)C3)C1` (stereo partly drawn) [Example 10, Methyl 3-((R)-6-(6-chloro-1H-pyrrolo[2,3-b]pyridin-4-yl)-7-methyl-5,6,7,8-tetrahydro-pyrido[4,3-d]pyrimidin-4-yl)piperidine-1-carboxylate bis(trifluoroacetate)], the pIC50 in assay [1] (setting [3]) is 6.39; in assay [2] (setting [4]) it was 7.41.
On to `C[C@@H]1Cc2ncnc(N3CCCN(S(C)(=O)=O)CC3)c2CN1c1ccnc2[nH]ccc12` [Example 19, 1-methanesulfonyl-4-[(7R)-7-methyl-6-{1H-pyrrolo[2,3-b]pyridin-4-yl}-5H,6H,7H,8H-pyrido[4,3-d]pyrimidin-4-yl]-1,4-diazepane], for which the pIC50 is 5.00 to 6.00 in assay [1] (setting [5]) and 6.79 in assay [2] (setting [4]).
`CNC(=O)[C@H]1CCCN(c2ncnc3c2CN(c2cc(Cl)nc4[nH]ccc24)[C@H](C)C3)C1` [Example 67, (S)-1-((R)-6-(6-chloro-1H-pyrrolo[2,3-b]pyridin-4-yl)-7-methyl-5,6,7,8-tetrahydropyrido[4,3-d]-pyrimidin-4-yl)-N-methylpiperidine-3-carboxamide]: the pIC50 in assay [1] (setting [3]) was 6.85; in assay [2] (setting [4]), 8.05.
On the same counts, the results for `C[C@@H]1Cc2ncnc(C3CCC(NS(C)(=O)=O)CC3)c2CN1c1cc(Cl)nc2[nH]ccc12` (stereo partly drawn) [Example 40, (R)-N-(4-(6-(6-chloro-1H-pyrrolo[2,3-b]pyridin-4-yl)-7-methyl-5,6,7,8-tetrahydropyrido[4,3-d]pyrimidin-4-yl)cyclohexyl)methane-sulfonamide] are 6.05 and 7.62.
Turning to `C[C@@H]1Cc2ncnc(C3CCN(S(C)(=O)=O)CC3)c2CN1c1ccnc2[nH]ncc12` [Example 42, (R)-7-methyl-4-(1-(methylsulfonyl)piperidin-4-yl)-6-(1H-pyrazolo[3,4-b]pyridin-4-yl)-5,6,7,8-tetrahydropyrido[4,3-d] pyrimidine], the pIC50 is 5.00 to 6.00 in assay [1] (setting [5]) and 5.52 in assay [2] (setting [4]).
For `CS(=O)(=O)N1CCC(c2ncnc3c2CN(c2ccnc4[nH]ccc24)C(CF)C3)CC1` (centres unmarked) [Example 92], the pIC50 was 5.89 in assay [1] (setting [3]) and 6.23 in assay [2] (setting [4]).
On the same counts, the results for `C[C@@H]1Cc2ncnc(N3CCC(NS(C)(=O)=O)CC3)c2CN1c1cc(Cl)nc2[nH]ccc12` [Example 29, N-{1-[(7R)-6-{6-chloro-1H-pyrrolo[2,3-b]pyridin-4-yl}-7-methyl-5H,6H,7H,8H-pyrido [4,3-d]pyrimidin-4-yl]piperidin-4-yl}methanesulfonamide] are 6.92 and 7.89.
In the case of `CCOc1cc(N2Cc3c(ncnc3C3CCN(S(C)(=O)=O)CC3)C[C@H]2C)c2cc[nH]c2n1` [Example 54, (R)-6-(6-ethoxy-1H-pyrrolo[2,3-b]pyridin-4-yl)-7-methyl-4-(1-(methylsulfonyl)piperidin-4-yl)-5,6,7,8-tetrahydropyrido[4,3-d]pyrimidine], the pIC50 in assay [1] (setting [3]) is 6.91; in assay [2] (setting [4]), 8.00.
On the same counts, the results for `C[C@@H]1Cc2ncnc(N3CC[C@@H](S(C)(=O)=O)C3)c2CN1c1cc(Cl)nc2[nH]ccc12` [Example 87, (R)-6-(6-chloro-1H-pyrrolo[2,3-b]pyridin-4-yl)-7-methyl-4-((R)-3-(methylsulfonyl)-pyrrolidin-1-yl)-5,6,7,8-tetrahydropyrido[4,3-d]-pyrimidine] are 6.63 and 7.70.
